Where two headings read alike, the source gives them in different places. Some results are limits rather than exact numbers.

The subject of test [1] is M14 (amelanotic melanoma) cells. The test is described as follows: antiproliferation assay (72 h, CELLTITER 96), M14. The test is classed as cell-based, human. As to conditions: Homo sapiens. As to the method: (§1) All of the compounds shown in Table 3-Table 8 below were prepared synthetically as described in EXAMPLE I. The compounds were tested for their ability to inhibit the proliferation of human cancer cells in vitro as described in the following paragraph. Table 3-Table 8 list the IC50 values in the M14 and NCI-H460 human cancer cell lines. IC50 is defined as the concentration of compound necessary to achieve 50% of the maximum growth inhibition.
(§2) For the antiproliferation assay, NCI-H460 (large cell lung carcinoma) or M14 (amelanotic melanoma) cells were grown in RPMI-1640 with 10% FBS supplemented with L-glutamine and HEPES. Cells were seeded into 96-well plates at 5×10^2 to 5×10^4 cells/well and allowed to adhere overnight; the medium was then removed. A stock solution of test compound in DMSO was diluted in medium to generate a series of working solutions. Aliquots (100 μl) of the working solutions were then added to the appropriate test wells to expose cells to the final concentrations of compound in a total volume of 100 μl. Seven different concentrations were tested, with 2-5 wells per concentration. Camptothecin was used as a positive control; wells containing vehicle without compound were used as negative controls. Plates were kept for 72 h in a 37° C., 5% CO2 incubator. After incubation, viable cells were detected with the CELLTITER 96 AQueous Non-Radioactive Cell Proliferation Assay (Promega), and IC50 values were determined using GraphPad Prism 5 software.

The subject of test [2] is NCI-H460 (large cell lung carcinoma) cells. The test is described as follows: antiproliferation assay (72 h, CELLTITER 96), NCI-H460. The test is classed as cell-based, human. To be noted: Homo sapiens. As to the method: as §1, §2
The mark [3] stands for this setting: NCI-H460, Table 4, read-out: NCI-H460 IC50.
Setting [4] is: NCI-H460, Table 3, read-out: NCI-H460 IC50.
Setting [5] is: NCI-H460, Table 8, read-out: NCI-H460 IC50.
The mark [6] stands for this setting: NCI-H460, Table 7, read-out: NCI-H460 IC50.
The mark [7] stands for this setting: NCI-H460, Table 5, read-out: NCI-H460 IC50.
[8] abbreviates: NCI-H460, stereoisomers of compound 4, Table 1, read-out: IC50 NCI-H460.

The term IC50 denotes the concentration at which inhibition is half-maximal. Consider `C=CC[C@H]1C[C@]2([C@@H](C)Cc3ccc(OC)c(Cl)c3)OCOC2=CC1=O` [Compound 38, (6S,7aR)-6-allyl-7a-((S)-1-(3-chloro-4-methoxyphenyl)propan-2-yl)-7,7a-dihydrobenzo[d][1,3]dioxol-5(6H)-one], for which the half-inhibitory concentration (IC50) in test [1] (Table 4) was found to be 240 nM; in test [2] (setting [3]), 640 nM. Turning to `C=CC[C@H]1C[C@]2([C@@H](C)Cc3cc(-c4ccccc4)c(OC)cc3F)OCOC2=CC1=O` [Compound 91, (6S,7aR)-6-allyl-7a-((S)-1-(4-fluoro-6-methoxy-[1,1′-biphenyl]-3-yl)propan-2-yl)-7,7a-dihydrobenzo[d][1,3]dioxol-5(6H)-one], the half-inhibitory concentration (IC50) in test [1] (Table 3) and in test [2] (setting [4]) was more than 20000 nM in each case.

As for `C=CC[C@H]1C[C@]2(CCc3ccc(OC)c(OC)c3)OCOC2=CC1=O` [Compound 72, (6S,7aS)-6-allyl-7a-(3,4-dimethoxyphenethyl)-7,7a-dihydrobenzo[d][1,3]dioxol-5(6H)-one], the IC50 in test [1] (Table 8) amounted to 2000 nM; in test [2] (setting [5]), 3200 nM. On to `COc1ccc(C[C@H](C)[C@]23C[C@H](CC=C(C)C)C(=O)C=C2OCO3)cc1OC` [Compound 90], for which the half-maximal inhibitory concentration (IC50) in test [1] (Table 7) worked out at 7000 nM; in test [2] (setting [6]), 8000 nM. For the molecule `CC[C@H]1C[C@]2([C@@H](C)Cc3cc(F)c(OC)cc3F)OCOC2=CC1=O` [Compound 57], the IC50 in test [1] (Table 7) stood at 140 nM; in test [2] (setting [6]), 200 nM. As for `C=CC[C@H]1C[C@]2([C@@H](C)Cc3ccc(OC)c(C#N)c3)OCOC2=CC1=O` [Compound 31, 5-((S)-2-((3aR,5S)-5-allyl-6-oxo-3a,4,5,6-tetrahydrobenzo[d][1,3]dioxol-3a-yl)propyl)-2-methoxybenzonitrile], the figures for the IC50 in test [1] (Table 4) and in test [2] (setting [3]) were 180 nM and 340 nM, respectively. Taken in the same sequence, the figures for `C=CC[C@H]1C[C@]2([C@H](C)Cc3ccc(OC)c(N(C)C)c3)OCOC2=CC1=O` [Compound 97, (6S,7aR)-6-allyl-7a-((R)-1-(3-(dimethylamino)-4-methoxyphenyl)propan-2-yl)-7,7a-dihydrobenzo[d][1,3]dioxol-5(6H)-one] were more than 20000 nM and more than 20000 nM. Regarding `COc1cc(F)c(CC(C)[C@]23C[C@H](C)C(=O)C=C2OCO3)cc1F` (stereo partly drawn) [Compound 56, (6S,7aR)-7a-(1-(2,5-difluoro-4-methoxyphenyl)propan-2-yl)-6-methyl-7,7a-dihydrobenzo[d][1,3]dioxol-5(6H)-one], the IC50 in test [1] (Table 7) was found to be 140 nM; in test [2] (setting [6]) it was 430 nM. As to `C=CCC1C[C@]2([C@@H](C)Cc3ccc(OC)c(C(C)=O)c3)OCOC2=CC1=O` (stereo partly drawn) [Compound 96, (7aR)-7a-((S)-1-(3-acetyl-4-methoxyphenyl)propan-2-yl)-6-allyl-7,7a-dihydrobenzo[d][1,3]dioxol-5(6H)-one], the IC50 in test [1] (Table 4) and in test [2] (setting [3]) was more than 20000 nM in each case. In the case of `C=CC[C@H]1C[C@]2([C@@H](C)Cc3cc(NC(C)=O)c(OC)cc3F)OCOC2=CC1=O` [Compound 18, N-(5-((S)-2-((3aR,5S)-5-allyl-6-oxo-3a,4,5,6-tetrahydrobenzo[d][1,3]dioxol-3a-yl)propyl)-4-fluoro-2-methoxyphenyl)acetamide], the concentration for half-maximal inhibition (IC50) in test [1] (Table 3) was 160 nM; in test [2] (setting [4]), 410 nM. Consider `C#CC[C@H]1C[C@]2([C@@H](C)Cc3ccc(OC)cc3F)OCOC2=CC1=O` [Compound 62, (6S,7aR)-7a-((S)-1-(2-fluoro-4-methoxyphenyl)propan-2-yl)-6-(prop-2-yn-1-yl)-7,7a-dihydrobenzo[d][1,3]dioxol-5(6H)-one], for which the results for the IC50 in test [1] (Table 7) and in test [2] (setting [6]) were 200 nM and 73 nM, respectively. `C=CC[C@H]1C[C@]2([C@H](C)Cc3ccc(OC)c4occc34)OCOC2=CC1=O` [Compound 84, (6S,7aR)-6-allyl-7a-((R)-1-(7-methoxybenzofuran-4-yl)propan-2-yl)-7,7a-dihydrobenzo[d][1,3]dioxol-5(6H)-one]: the IC50 is more than 20000 nM in test [1] (Table 8) and 2600 nM in test [2] (setting [5]).

`C=CC[C@H]1C[C@]2([C@H](C)Cc3ccc(NC)c(F)c3)OCOC2=CC1=O` [Compound 43, (6S,7aR)-6-allyl-7a-((R)-1-(3-fluoro-4-(methylamino)phenyl)propan-2-yl)-7,7a-dihydrobenzo[d][1,3]dioxol-5(6H)-one]: the results for the IC50 in test [1] (Table 5) and in test [2] (setting [7]) were 64 nM and 300 nM, respectively. Regarding `C=CC[C@H]1C[C@]2([C@@H](C)Cc3ccc(OC)c4occc34)OCOC2=CC1=O` [Compound 85, (6S,7aR)-6-allyl-7a-((S)-1-(7-methoxybenzofuran-4-yl)propan-2-yl)-7,7a-dihydrobenzo[d][1,3]dioxol-5(6H)-one], the IC50 in test [1] (Table 8) came to 630 nM; in test [2] (setting [5]), 730 nM.

In the case of `C=CC[C@H]1C[C@]2([C@@H](C)Cc3cc(F)c(SC)cc3F)OCOC2=CC1=O` [Compound 116, (6S,7aR)-6-allyl-7a-((S)-1-(2,5-difluoro-4-(methylthio)phenyl)propan-2-yl)-7,7a-dihydrobenzo[d][1,3]dioxol-5(6H)-one], the 50% inhibitory concentration (IC50) in test [1] (Table 5) is 120 nM; in test [2] (setting [7]), 190 nM. For `C=CC[C@H]1C[C@]2([C@H](C)Cc3cc(F)c(N(C)C)cc3F)OCOC2=CC1=O` [Compound 47, (6S,7aR)-6-allyl-7a-((R)-1-(4-(dimethylamino)-2,5-difluorophenyl)propan-2-yl)-7,7a-dihydrobenzo[d][1,3]dioxol-5(6H)-one], the IC50 came out at 75 nM in test [1] (Table 5) and 330 nM in test [2] (setting [7]). On to `C=CC[C@H]1C[C@]2([C@@H](C)Cc3ccc4c(c3)OCO4)OCOC2=CC1=O` [Compound 83, (6S,7aR)-6-allyl-7a-((S)-1-(benzo[d][1,3]dioxol-5-yl)propan-2-yl)-7,7a-dihydrobenzo[d][1,3]dioxol-5(6H)-one], for which the IC50 in test [1] (Table 8) turned out to be 650 nM; in test [2] (setting [5]), 390 nM. Take `COc1ccc(C[C@H](C)[C@]23C[C@H](CC4CC4)C(=O)C=C2OCO3)c(F)c1` (relative stereo) [Compound 63, (7aR)-6-(cyclopropylmethyl)-7a-((S)-1-(2-fluoro-4-methoxyphenyl)propan-2-yl)-7,7a-dihydrobenzo[d][1,3]dioxol-5(6H)-one]: the IC50 was more than 20000 nM in test [1] (Table 7) and 1700 nM in test [2] (setting [6]). Take `C=CC[C@H]1C[C@]2([C@@H](C)Cc3cc(C)c(OC)cc3F)OCOC2=CC1=O` [Compound 8, (6S,7aR)-6-allyl-7a-((S)-1-(2-fluoro-4-methoxy-5-methylphenyl)propan-2-yl)-7,7a-dihydrobenzo[d][1,3]dioxol-5(6H)-one]: the results for the concentration for half-maximal inhibition (IC50) in test [1] (Table 3) and in test [2] (setting [4]) were 230 nM and 650 nM, respectively. In the case of `COc1cc(F)c(C[C@H](C)[C@]23CCC(=O)C=C2OCO3)cc1O` [Compound 104, (R)-7a-((S)-1-(2-fluoro-5-hydroxy-4-methoxyphenyl)propan-2-yl)-7,7a-dihydrobenzo[d][1,3]dioxol-5(6H)-one], the IC50 in test [1] (Table 7) and in test [2] (setting [6]) was more than 20000 nM in each case. As to `C=CC[C@H]1C[C@]2([C@@H](C)Cc3ccc(OC)c(OC)c3F)OCOC2=CC1=O` [Compound 20, (6S,7aR)-6-allyl-7a-((S)-1-(2-fluoro-3,4-dimethoxyphenyl)propan-2-yl)-7,7a-dihydrobenzo[d][1,3]dioxol-5(6H)-one], the IC50 in test [1] (Table 3) is 710 nM. Regarding `C=CC[C@@H]1C[C@]2([C@H](C)Cc3cc(O)c(OC)cc3F)OCOC2=CC1=O` [SQ 1378], the IC50 in test [2] (setting [8]) was 1900 nM. Turning to `C=CC[C@@H]1C[C@]2([C@@H](C)Cc3cc(O)c(OC)cc3F)OCOC2=CC1=O` [SQ 1389], the half-maximal inhibitory concentration (IC50) in test [2] (setting [8]) came out at 2500 nM.

Values taken from US9562031B1, “Phenethyldihydrobenzodioxolones and methods of use” (Sequoia Sciences, Inc., priority 2015, dated 2017).
